Measured values from patent publication US11174226B2, “Azetidinimines as carbapenemases inhibitors” (priority 2015, dated 2021).

Experiment: Stability tests of imipenem with increasing concentrations of tested molecules
Protocol: These tests were conducted by comparing UV absorbance slope measurements of impenem alone, and then imipenem with the concerned azetidinimines at given concentrations in the presence of the enzyme. It was thus possible to monitor the hydrolysis of imipenem. Lower the value of the slope, the higher is the percentage of inhibition of the enzyme.
Stability tests of imipenem with increasing concentrations of tested molecules of the present invention (T4#1, i.e. compound #1 of table 4; T4#7 i.e. compound #7 of table 4; T4#9 i.e. compound #9 of table 4; T4#2 i.e. compound #2 of table 4) were also conducted (Table 2).

SMILES: COc1ccc(C2C/C(=N\c3ccccc3)N2c2ccccc2)cc1 (stereo not drawn) [T4#2, (E)-N-(4-(4-methoxyphenyl)-1-phenylazetidin-2-ylidene)aniline]
- Slope (stability test of imipenem) (C 1 μM of tested molecule): 3
- Slope (stability test of imipenem) (C 10 μM of tested molecule): 30
- Slope (stability test of imipenem) (C 100 μM of tested molecule): 321
